# In patent US5130474A, “Optically-active derivatives of (R) 5-pentylamino-5-oxopentanoic acid with antagonistic activity towards cholecystokin in and a method for their preparation” (Rotta Research Laboratorium SpA, priority 1987, dated 1992):
# Where two headings read alike, the source gives them in different places.
# Experiments:
# [1] = biological target: T1, cholecystokinin receptors of ox gallbladder membranes (Bos taurus, UniProt A6QLH2); assay: Inhibition of the binding of [125-I]-Bolton Hunter-CCK-8 to ox gallbladder membranes; conditions: pH 7.4, 2 h at 25° C., read-out: IC50, inhibition of the binding of (^125 I)-(B-H)-CCK-8
# T1 construct: The ox gallbladder cell membranes were homogenised with Tris buffer (pH 7.4); from tissue; host or cells: ox gallbladder cell membranes
# T1 sequence (A6QLH2 1-427): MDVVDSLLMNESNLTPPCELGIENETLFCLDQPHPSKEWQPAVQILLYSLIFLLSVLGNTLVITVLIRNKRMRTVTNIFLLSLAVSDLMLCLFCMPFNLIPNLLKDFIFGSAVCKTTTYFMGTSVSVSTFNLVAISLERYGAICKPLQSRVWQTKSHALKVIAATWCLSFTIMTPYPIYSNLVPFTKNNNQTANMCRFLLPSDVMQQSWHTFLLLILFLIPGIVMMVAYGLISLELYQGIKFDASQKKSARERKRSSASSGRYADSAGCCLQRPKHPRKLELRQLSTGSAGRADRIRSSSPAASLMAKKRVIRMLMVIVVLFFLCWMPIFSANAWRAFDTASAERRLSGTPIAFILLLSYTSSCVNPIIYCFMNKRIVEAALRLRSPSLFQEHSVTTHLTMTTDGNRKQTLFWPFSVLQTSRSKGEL
# Method: The ox gallbladder cell membranes were homogenised with Tris buffer (pH 7.4) and the homogenate was centrifuged at 50,000 gravity for 10 minutes. The membranes were then incubated with a radioactive tracer and the compounds under study for 2 h at 25° C.
# After the supernatant liquid had been discarded, the radioactivity associated with the pellet was determined with a liquid scintillator. The specific binding was determined as the difference between the binding in the absence and in the presence of 10^-6 M CCK-8.
# [2] = system: gallbladder contraction induced by egg yolk; assay: Antispastic activity on the gallbladder in mice (gallbladder emptying induced by egg yolk); format: in vivo; conditions: for ED50: Mus musculus, ip, read-out: ID50, antispastic activity on gallbladder contraction induced by egg yolk
# Method: The emptying of the gallbladder was induced by a single oral administration of 1 ml of a 30% suspension (weight/volume) of lyophilised egg yolk in a physiological solution.
# Once it has been absorbed, the egg yolk, as stated above, induces the release of endogenous CCK.
# The antagonist compounds were administered intraperitoneally (i.p.) 15 minutes before the contractant.
# The % antispastic activity for each dose was calculated by the following formula: [formula] where P1 =average weight of the gallbladders of the group of animals treated with the drug plus the contractant
# P2 =average weight of the gallbladders of the group of animals treated with contractant only
# P3 =average weight of the gallbladders of the control group of animals.
# [3] = system: piloric contraction induced by CCK; assay: Antispastic activity on piloric contraction induced by CCK in rats; format: in vivo, rat; conditions: for ED50: ip, rat, 8 mcg/kg i.p. CCK, compound i.p. 15 minutes before, read-out: ID50, antispastic activity on piloric contraction induced by CCK
# Method: A dose of 8 mcg/kg i.p. of CCK was used, which induces a sub-maximal contraction of the pilorus.
# The antagonistic compounds were administered (i.p.) 15 minutes before the contractant. 10 minutes after the administration of the contractant, the animals were treated per os with 25 ml/kg of H2 O. 5 minutes after this administration, the animals were killed, their stomachs removed and the gastric content measured by removal with a syringe.
# The % antispactic activity for each dose administered was calculated from the following formula: [formula] where V1 =the gastric-content volume of the group of animals treated with the drug plus the contractant
# V2 =the gastric-content volume of the group of animals treated with the contractant only
# V3 =the gastric-content volume of the control group of animals.
# The compounds were tested at various doses so as to enable the calculation of the ID50 value, that is the dose (in mg/kg i.p.) which is able to inhibit the contractant effect of CCK by 50%.
# The results obtained are given in Table 7, where the effects obtained are expressed as the ID50.
# [4] = system: experimental pancreatitis induced by taurocholate; assay: Pancreatitis induced by sodium taurocholate; format: in vivo, rats; conditions: for ED50: Rattus norvegicus, ip, 6 h
# Method: The method described by Aho et al. (Scandinavian J. Gastroenterology 15 (1980), 411-16) was followed
# Male rats weighing approximately 250 g were subjected to laparatomy and the pancreas exposed. 0.3 ml of a 6% solution of sodium taurocholate was injected directly into the pancreatic tissue.
# The products under test were administered intraperitoneally (i.p.) 30 minutes before the operation and 3 hours after the operation. 6 hours after the laparotomy and after anesthesia with ether, blood was removed from the retro-orbital plexus, the animals were killed and the pancreas removed and weighed. The activity of the serum amylase was determined by the Ceska method (Clin. Chim. Acta 26 (1969), 437-444).
# The compounds were tested at different doses so as to enable the calculation of the ID50 value, that is the dose (in mg/kg i.p.) which is able to inhibit the toxic effect of the sodium taurocholate by 50%, expressed both as a % inhibition of the increase in weight of the pancreas and as a % inhibition of the increase in serum amylase.
# [5] = mice, i.p. 15 minutes before egg yolk
# [6] = 30 min before and 3 h after operation, read-out: ID50, inhibition of the increase in serum amylase
# [7] = 30 min before and 3 h after operation, read-out: ID50, inhibition of the increase in weight of the pancreas
# [8] = 5 mg/kg i.p. (second dose of compound 8) + taurocholate
# [9] = 5 mg/kg i.p. (third dose of compound 8) + taurocholate
compound,measurement,setting,value
CCCCCN(CCCCC)C(=O)[C@@H](CCC(=O)O)NC(=O)c1ccc2ccccc2c1 [Compound 7],IC50,[1],1 nM
same,% inhibition of the emptying of the gallbladder,[2]; 0.025 mg/kg i.p.,24.0%
same,% inhibition of the emptying of the gallbladder,[2]; 0.05 mg/kg i.p.,44.2%
same,ED50,[2]; [5],0.05 mg/kg
same,% inhibition of piloric contraction,[3]; 0.01 mg/kg i.p.,27.7%
same,% inhibition of piloric contraction,[3]; 0.03 mg/kg i.p.,48.8%
same,% inhibition of piloric contraction,[3]; 0.1 mg/kg i.p.,80.8%
same,ED50,[3],0.03 mg/kg
same,% inhibition increase in amylase,[4]; 0.3 mg/kg i.p. + taurocholate,42.2%
same,% inhibition of weight increase (pancreas),[4]; 0.3 mg/kg i.p. + taurocholate,36.4%
same,% ratio pancreas weight / animal weight,[4]; 0.3 mg/kg i.p. + taurocholate,0.47%
same,Amylase in the serum,[4]; 0.3 mg/kg i.p. + taurocholate,12.0 U/ml
same,% inhibition increase in amylase,[4]; 1 mg/kg i.p. + taurocholate,79.7%
same,% inhibition of weight increase (pancreas),[4]; 1 mg/kg i.p. + taurocholate,54.5%
same,% ratio pancreas weight / animal weight,[4]; 1 mg/kg i.p. + taurocholate,0.45%
same,Amylase in the serum,[4]; 1 mg/kg i.p. + taurocholate,9.6 U/ml
same,% inhibition increase in amylase,[4]; 3 mg/kg i.p. + taurocholate,89.0%
same,% inhibition of weight increase (pancreas),[4]; 3 mg/kg i.p. + taurocholate,90.8%
same,% ratio pancreas weight / animal weight,[4]; 3 mg/kg i.p. + taurocholate,0.41%
same,Amylase in the serum,[4]; 3 mg/kg i.p. + taurocholate,9.0 U/ml
same,ED50,"[4]; both parameters, read-out: dose inhibiting the increase in weight of the pancreas and the increase in serum amylase by 50%",~0.5 mg/kg
same,ED50,[4]; [6],0.4 mg/kg
same,ED50,[4]; [7],0.6 mg/kg
CCCCCN(CCCCC)C(=O)[C@@H](CCC(=O)O)NC(=O)c1ccc(Cl)c(Cl)c1 [Compound 8],IC50,[1],7.5 nM
same,% inhibition of the emptying of the gallbladder,[2]; 0.1 mg/kg i.p.,25.2%
same,% inhibition of the emptying of the gallbladder,"[2]; 0.1 mg/kg i.p. as printed (third, highest dose of compound 8)",86.3%
same,% inhibition of the emptying of the gallbladder,[2]; 0.3 mg/kg i.p.,53.2%
same,ED50,[2]; [5],0.25 mg/kg
same,% inhibition of piloric contraction,[3]; 0.03 mg/kg i.p.,29.8%
same,% inhibition of piloric contraction,[3]; 0.1 mg/kg i.p.,48.0%
same,% inhibition of piloric contraction,[3]; 0.3 mg/kg i.p.,68.1%
same,ED50,[3],0.11 mg/kg
same,% inhibition increase in amylase,[4]; 1 mg/kg i.p. + taurocholate,40.7%
same,% inhibition of weight increase (pancreas),[4]; 1 mg/kg i.p. + taurocholate,35.3%
same,% ratio pancreas weight / animal weight,[4]; 1 mg/kg i.p. + taurocholate,0.48%
same,Amylase in the serum,[4]; 1 mg/kg i.p. + taurocholate,12.7 U/ml
same,% inhibition increase in amylase,[4]; [8],76.5%
same,% inhibition of weight increase (pancreas),[4]; [8],52.5%
same,% ratio pancreas weight / animal weight,[4]; [8],0.45%
same,Amylase in the serum,[4]; [8],9.8 U/ml
same,% inhibition increase in amylase,[4]; [9],86.4%
same,% inhibition of weight increase (pancreas),[4]; [9],82.3%
same,% ratio pancreas weight / animal weight,[4]; [9],0.40%
same,Amylase in the serum,[4]; [9],9.0 U/ml
same,ED50,[4]; [6],1.2 mg/kg
same,ED50,[4]; [7],1.8 mg/kg
CCCCCN(CCCCC)C(=O)[C@@H](CCC(=O)O)NC(=O)c1ccc(C)c(C)c1 [Compound 9],IC50,[1],44 nM
CCCCCN(CCCOC)C(=O)[C@@H](CCC(=O)O)NC(=O)c1ccc2ccccc2c1 [Compound 10],IC50,[1],6.2 nM
CCCCCN(CCCOC)C(=O)[C@@H](CCC(=O)O)NC(=O)c1ccc(Cl)c(Cl)c1 [Compound 11],IC50,[1],30 nM
CCCCCN(CCOCC)C(=O)[C@@H](CCC(=O)O)NC(=O)c1ccc2ccccc2c1 [Compound 12],IC50,[1],9.3 nM
CCCCCN(CCCCC)C(=O)[C@H](CCC(=O)O)NC(=O)c1ccc2ccccc2c1 [Compound 13],IC50,[1],61 nM
same,% inhibition of the emptying of the gallbladder,[2]; 1 mg/kg i.p.,18.8%
same,% inhibition of the emptying of the gallbladder,[2]; 3 mg/kg i.p.,47.7%
same,% inhibition of the emptying of the gallbladder,[2]; 9 mg/kg i.p.,80.2%
same,ED50,[2]; [5],3.2 mg/kg
same,% inhibition of piloric contraction,[3]; 1 mg/kg i.p.,17.7%
same,% inhibition of piloric contraction,[3]; 3 mg/kg i.p.,39.0%
same,% inhibition of piloric contraction,[3]; 5 mg/kg i.p.,54.2%
same,ED50,[3],4.55 mg/kg
same,"active dose, times higher than compound 7",[3]; piloric contraction,approximately 150 times
CCCCCN(CCCCC)C(=O)[C@H](CCC(=O)O)NC(=O)c1ccc(Cl)c(Cl)c1 [Compound 14],IC50,[1],450 nM
CCCCCN(CCCCC)C(=O)[C@H](CCC(=O)O)NC(=O)c1ccc(C)c(C)c1 [Compound 15],IC50,[1],2200 nM
CCCCCN(CCCOC)C(=O)[C@H](CCC(=O)O)NC(=O)c1ccc2ccccc2c1 [Compound 16],IC50,[1],560 nM
"COc1ccc(Cc2nccc3cc(OC)c(OC)cc23)cc1OC [PAPAVERINE, reference compound]",% inhibition of the emptying of the gallbladder,[2]; 25 mg/kg i.p.,0%
same,% inhibition of the emptying of the gallbladder,[2]; 50 mg/kg i.p.,0%
same,% inhibition of the emptying of the gallbladder,[2]; 75 mg/kg i.p.,26.1%
same,"ID50, antispastic activity on gallbladder contraction induced by egg yolk",[2]; [5],INACTIVE
same,"antispastic activity on the gallbladder, in words",[2]; only at 75 mg/kg,slightly active
CCK-8: cold (unmarked) CCK [reference compound],IC50,[1],0.2 nM
